Test results reported in PubChem BioAssay AID248 (DTP/NCI, 2004).
Inconclusive results and toxic doses are left out. Cut-off read from the data, not from the text of the source: active = T/C of 150% or more; inactive = T/C below 125%.

System: L1210 leukemia ip in BDF1 mice, survival T/C
Test: NCI In Vivo Anticancer Drug Screen. Data for tumor model L1210 Leukemia (intraperitoneal) in B6D2F1 (BDF1) mice
Conditions: endpoint: mean survival time, higher = longer survival
Summary of the method: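 Survival endpoint. Drug-treated group vs vehicle group, expressed as T divided by C. Tumor passaged by transplantation.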

Measured: T/C

O=c1[nH]c(=O)c2n[nH]nc2[nH]1
inactive: dose: 1.0 mg/kg/injection, schedule: Q01DX009 (ip), vehicle: saline 103 % of control | dose: 2.0 mg/kg/injection, schedule: Q01DX009 (ip), vehicle: saline 93 % of control | dose: 4.0 mg/kg/injection, schedule: Q01DX009 (ip), vehicle: saline 95 % of control | dose: 8.0 mg/kg/injection, schedule: Q01DX009 (ip), vehicle: saline 103 % of control | dose: 16.0 mg/kg/injection, schedule: Q01DX009 (ip), vehicle: saline 101 % of control | dose: 16.0 mg/kg/injection, schedule: Q01DX015 (ip), vehicle: carboxymethylcellulose (CMC) 88 % of control | dose: 75.0 mg/kg/injection, schedule: Q01DX009 (ip), vehicle: saline 110 % of control | dose: 100.0 mg/kg/injection, schedule: Q01DX001 (ip), vehicle: carboxymethylcellulose (CMC) 96 % of control | dose: 115.0 mg/kg/injection, schedule: Q01DX009 (ip), vehicle: saline 107 % of control | dose: 125.0 mg/kg/injection, schedule: Q01DX015 (ip), vehicle: carboxymethylcellulose (CMC) 92 % of control | dose: 170.0 mg/kg/injection, schedule: Q01DX009 (ip), vehicle: saline 98 % of control | dose: 200.0 mg/kg/injection, schedule: Q01DX001 (ip), vehicle: carboxymethylcellulose (CMC) 102 % of control | dose: 255.0 mg/kg/injection, schedule: Q01DX009 (ip), vehicle: saline 97 % of control | dose: 385.0 mg/kg/injection, schedule: Q01DX009 (ip), vehicle: saline 105 % of control | dose: 400.0 mg/kg/injection, schedule: Q01DX001 (ip), vehicle: carboxymethylcellulose (CMC) 91 % of control

Nc1cc(N)nc(C(F)(F)F)n1
inactive: dose: 50.0 mg/kg/injection, schedule: Q01DX Z (ip), vehicle: methylcellulose (MC) 102 % of control | dose: 100.0 mg/kg/injection, schedule: Q01DX Z (ip), vehicle: methylcellulose (MC) 94 % of control

O=C(O)C(Br)CF (configuration not stated)
inactive: dose: 100.0 mg/kg/injection, schedule: Q04DX002 (ip), vehicle: saline 93 % of control | dose: 200.0 mg/kg/injection, schedule: Q04DX002 (ip), vehicle: saline 97 % of control | dose: 400.0 mg/kg/injection, schedule: Q04DX002 (ip), vehicle: saline 87 % of control

Nc1nc(N)nc(-c2ccccc2NC(=O)c2ccccc2N)n1
inactive: dose: 100.0 mg/kg/injection, schedule: Q01DX009 (ip), vehicle: Klucel (hydroxypropylcellulose) (HPC) 95 % of control | dose: 100.0 mg/kg/injection, schedule: Q04DX003 (ip), vehicle: Klucel (hydroxypropylcellulose) (HPC) 103 % of control | dose: 200.0 mg/kg/injection, schedule: Q01DX009 (ip), vehicle: Klucel (hydroxypropylcellulose) (HPC) 91 % of control | dose: 200.0 mg/kg/injection, schedule: Q04DX003 (ip), vehicle: Klucel (hydroxypropylcellulose) (HPC) 101 % of control | dose: 400.0 mg/kg/injection, schedule: Q01DX009 (ip), vehicle: Klucel (hydroxypropylcellulose) (HPC) 101 % of control | dose: 400.0 mg/kg/injection, schedule: Q04DX003 (ip), vehicle: Klucel (hydroxypropylcellulose) (HPC) 95 % of control

CC(C)(C)c1ccc(P(=O)(O)C(C)(C)C)cc1
inactive: dose: 75.0 mg/kg/injection, schedule: Q01DX001 (ip), vehicle: saline 96 % of control | dose: 150.0 mg/kg/injection, schedule: Q01DX001 (ip), vehicle: saline 102 % of control

CC1=CC(=O)C(C)(C)CC1
inactive: dose: 50.0 mg/kg/injection, schedule: Q01DX009 (ip), vehicle: saline with Tween-80 96 % of control | dose: 100.0 mg/kg/injection, schedule: Q01DX009 (ip), vehicle: saline with Tween-80 92 % of control | dose: 200.0 mg/kg/injection, schedule: Q01DX009 (ip), vehicle: saline with Tween-80 100 % of control

N#CC1(NC(=O)CCl)CCCCC1
inactive: dose: 100.0 mg/kg/injection, schedule: Q01DX001 (ip), vehicle: other 96 % of control | dose: 200.0 mg/kg/injection, schedule: Q01DX001 (ip), vehicle: other 91 % of control

CCNc1nc(C(F)(F)F)nc2[nH]ncc12
inactive: dose: 100.0 mg/kg/injection, schedule: Q01DX001 (ip), vehicle: acetone 101 % of control | dose: 100.0 mg/kg/injection, schedule: Q04DX003 (ip), vehicle: saline 101 % of control | dose: 200.0 mg/kg/injection, schedule: Q01DX001 (ip), vehicle: acetone 90 % of control | dose: 200.0 mg/kg/injection, schedule: Q04DX003 (ip), vehicle: saline 95 % of control | dose: 400.0 mg/kg/injection, schedule: Q01DX001 (ip), vehicle: acetone 90 % of control | dose: 400.0 mg/kg/injection, schedule: Q04DX003 (ip), vehicle: saline 97 % of control

c1ccc2c(c1)ccc1ccc(C3=NCCO3)cc12
inactive: dose: 100.0 mg/kg/injection, schedule: Q01DX001 (ip), vehicle: Klucel (hydroxypropylcellulose) (HPC) 94 % of control | dose: 200.0 mg/kg/injection, schedule: Q01DX001 (ip), vehicle: Klucel (hydroxypropylcellulose) (HPC) 100 % of control | dose: 400.0 mg/kg/injection, schedule: Q01DX001 (ip), vehicle: Klucel (hydroxypropylcellulose) (HPC) 100 % of control
